Measured values: US8324345B2, “HLA-binding peptide, precursor thereof, DNA fragment and recombinant vector encoding the same” (priority 2006, dated 2012)
No end group written: not given here.

Tests used:
[1] = target: HLA-A2 molecule (the product of HLA-A*0206 gene) (Homo sapiens, UniProt P04439, D140Y/D185E/D98H/E176V/E277Q/F33Y/G131W/G231S/I119V/I121R/I166T/I218V/L300P/L318F/N151K/N90K/P208A/P217A/Q86G/Q94H/R138H/R169H/T345S); experiment: cell-based
Protocol: The peptides' binding affinity to an HLA-A2 molecule (the product of HLA-A*0206 gene) was measured by using RA2.6 cells (a newly prepared cell line at Kochi University) that express the HLA-A*0206 gene, which were created by expressing cDNA of the HLA-A*0206 gene in RAMS cells, the mouse TAP peptide transporter deficient cells.
First, the RA2.6 cells were cultured overnight at 26° C. to accumulate HLA-A0206 molecules that were unbound to peptides on the cell surface. A peptide serial dilution was added thereto for binding at room temperature for 30 minutes.
Subsequently, the mixture was cultured for 3.5 hours at 37° C. to denature the empty HLA-A0206 molecules that were unbound to peptides. As a result, the HLA-A0206 molecules lost their steric structure.
Either the fluorescent labeled monoclonal antibody 17A10 or 17A12, which specifically recognizes a peptide-bound HLA-A0206 molecule, was added thereto. The mixture was incubated on ice for 20 minutes, and the cells were stained.
Subsequently, the amount of fluorescence per cell was measured by using a flow cytometer. The dissociation constant, Kd value, was calculated by using the method published in the research article (Udaka et al., Immunogenetics, 51, 816-828, 2000).

[2] = target: HLA-A2 molecule (the product of HLA-A*0201 gene) (Homo sapiens, UniProt P04439, D140Y/D185E/D98H/E176V/E277Q/G131W/G231S/I119V/I121R/I166T/I218V/L300P/L318F/N151K/N90K/P208A/P217A/Q86G/Q94H/R138H/R169H/T345S); experiment: Binding experiment of the peptides to an HLA-A0201 molecule (JY cells, flow cytometry)
Protocol: After neutralization, a reassemble experiment was performed.
The above JY cells and purified β 2 m were added to a serial dilution of the peptide whose binding affinity was to be measured. Then, the mixture was incubated on ice for 4 hours.

[3] = test system: human HLA-A type molecule; experiment: Binding experiments, summary statement for HLA-A type molecules; conditions: summary of the binding experiments
Protocol: The peptides' binding affinity to an HLA-A24 molecule (the product of HLA-A*2402 gene) was measured by using C1R-A24 cells that express the HLA-A*2402 gene (produced by and provided with permission of Professor Masafumi Takiguchi, Kumamoto University).

Sequence YVVIAILTV [compound 47] has a Kd [1] of 1380 nM.

With ALHQVFGAI [compound 38] the Kd [2] was 170 nM.

Work on FLIDGPETA [compound 35] yielded a Kd [2] of 883 nM.

For ALVAFLRFL [SEQ ID NO 21], the Kd [1] was 1080 nM and the “binding affinity to a human HLA-A type molecule (in words)” value [3] was “experimentally confirmed to have binding affinity”.

PLNEAIMAV [compound 29] was tested, and the Kd [2] was 320 nM.

Sequence NLVRLQSGV [compound 30] has a Kd [2] of 20100 nM.

For HVLGRLITV [compound 45], the Kd [1] was 557 nM.

Work on FQPESPSKL [compound 36] yielded a Kd [2] of 487 nM.

Work on SLRPQPTEL [compound 34] yielded a Kd [2] of 8910 nM.

For SVIEKMEAL [compound 48], the Kd [1] was 422 nM.

ILIRTGLLV [compound 33] showed a Kd [2] of 298 nM.

With YMPSVIEKM [compound 39] the Kd [2] was 266 nM.

ELPETLETL [compound 40] was tested, and the Kd [2] was 474 nM.

For LVISGLFPV [compound 41], the Kd [1] was 245 nM.

Sequence IVLEHGSCV [compound 27] has a Kd [2] of 1830 nM.

LALLAAFKV [compound 43] was tested, and the Kd [1] was 341 nM.

With LLFKTENGV [compound 28] the Kd [2] was 33.5 nM.

For IVLEHGSCV [compound 46], the Kd [1] was 952 nM.

In the case of QILEENVEV [compound 50], the Kd [1] is reported as 2480 nM.
